From US12697328B2, “Methods for treating metastasis with cathepsin C inhibitors” (Shanghai Institute of Nutrition and Health, Chinese Academy …, priority 2020, dated 2026)

How the values were obtained:
[1] = test system: liver cancer cells HUH7; test: Mouse xenograft, liver tumor cells by spleen injection; assay type: in vivo; settings: nude mice
Method: A series of mouse xenograft studies are conducted by injecting liver and pancreatic tumor cells into nude mice by spleen injection. Then the mice are treated by brensocatib, and the growth of the tumors in liver is observed.

[2] = test system: CTSC-overexpressing AT3 cancer cells; test: Brensocatib treatment of mice after orthotopic injection of CTSC-overexpressing AT3 cancer cells; assay type: in vivo, C57/BL6 mice; settings: brensocatib 5 mg/kg orally twice daily
Method: Female BALB/c and athymic mice aged 6-10 weeks were used in all animal experiments. […] For EdU labeling assays, nude mice were intravenously injected with 2×10^5 cancer cells, followed by intraperitoneal (i.p.) injection of 100 ng/mouse EdU (ThermoFisher, C10640) 24 h before lung harvest. […] For Sivelestat or DNase I treatment, mice were i.p. injected with Sivelestat (50 mg/kg) or DNase I (5 mg/kg) 2 h before cancer cell injection, followed by daily injection of the reagents for 9 days, and then maintenance shots twice a week. For GSK484 treatment, mice were treated with GSK484 (20 mg/kg, i.p. daily shots for 20 days from day 7, and then maintenance shots every two days) following orthotopic injection of AT3 or 4T07 cells. For IL-1b blocking or IL6R/CCR1 inhibition assays, mice were orthotopically inoculated with 5×10^4 AT3 and treated with i.p. administration of IgG or the IL-1β blocking antibody (100 μg per mouse), or the IL6R blocking antibody (100 μg per mouse) and the CCR1 inhibitor BX471 (20 mg/kg), every two days from day 7 until the mice were sacrificed. For brensocatib treatment, BALB/c mice were orthotopically inoculated with 1×10^5 4T1 cells, and C57/BL6 mice were orthotopically inoculated with 2×10^5 AT3. Vehicle controls (0.5% HPMC, 0.1% Tween 80 in 0.1 M citrate buffer, pH 3) and brensocatib (5 mg/kg) were administered orally twice daily until the mice were sacrificed. Orthotopic tumors were surgically removed at the size of about 1 cm^3. […] For TSP-1 degradation assays, mice were i.p. injected with GSK484 (20 mg/kg) 2 h before cancer cell injection and followed by daily treatment. Then, the lungs were perfused with 50 ml of pre-chilled PBS through the right ventricle until they were cleared of blood at 72 h post injection of 3×10^6 AT3 or 4T07 cells. BLI was acquired with NightOWL II LB983 Imaging System (Bert-hold) and IVIS Spectrum CT (PerkinElmer). All animal studies were conducted according to the guidelines for the care and use of laboratory animals and were approved by the Institutional Animal Care and Use Committee of Shanghai Institute of Nutrition and Health.

[3] = test system: murine neutrophils; test: Two-chamber migration of neutrophils recruited by media of neutrophils pre-treated with 4T07 CM; assay type: cell-based; settings: media of neutrophils pre-treated with CM of 4T07 with CTSC overexpressed; FIG. 7E
Method: The procedure of two-chamber migration assays was previously described (Zhuang et al., “Differential effects on lung and bone metastasis of breast cancer by Wnt signalling inhibitor DKK1,” Nat. Cell Biol. 19:1274-1285 (2017)). Briefly, 5×10^5 freshly isolated neutrophils in RPMI 1640 were added to the upper chamber (363096, BD), and a 1:1 mixture of RPMI 1640 and cancer cell CM, or medium from neutrophils cultured in cancer cell CM, was added to the lower chamber as the chemoattractant. The migrated cells in the lower chamber were counted after 3 h.

SMILES	formation of liver surface nodules ([1]; spleen injection of HUH7, FIG. 12B)	tumor growth of liver cancer cells HUH7 in liver ([1]; spleen injection, FIG. 12A)	survival rate ([2]; FIG. 10J)	circulating levels of IL-1β ([2]; FIG. 10K)	circulating NETs ([2]; FIGS. 10G-I)	lung metastases ([2]; FIGS. 10G-I)	lung metastatic nodule formation ([2]; FIGS. 10G-I)	neutrophil migration ([2]; FIGS. 10G-I)	migration of murine neutrophils [3]
Cn1c(=O)oc2ccc(-c3ccc(C[C@@H](C#N)NC(=O)[C@@H]4CNCCCO4)cc3)cc21 [brensocatib, (2S)—N-{(1S)-1-cyano-2-[4-(3-methyl-2-oxo-2,3-dihydro-1,3-benzoxazol-5-yl)phenyl]ethyl}-1,4-oxazepane-2-carboxamide]	suppresses	significantly inhibits tumor growth	significant increase	decrease	Decreases	Decreases	Decreases	Decreases	
CC(C)(C)C(=O)Oc1ccc(S(=O)(=O)Nc2ccccc2C(=O)NCC(=O)O)cc1 [Silvelestat]									significantly reduced
